Reference: patent US20110288032A1, “ENZASTAURIN FOR THE TREATMENT OF CANCER” (ELI LILLY AND COMPANY, priority 2008, published 2011)

Key:
Type in all cases: cell-based, human
HCT116 cells = experiment: siRNA sensitization of Enzastaurin drug response, CellTiter Glo cell viability; conditions: for IC50: Homo sapiens, HCT-116, 72 h, 72 h Enzastaurin
Procedure: HCT116 cells are obtained from American Tissue Culture Collection, ATCC (Rockville, Md., USA) and cultured in McCoy's 5A medium supplemented with 2 mM L-glutamine and 10% fetal bovine serum (FBS), in a humidified 37° C. incubator with 5% CO2. Plates (384-well) are pre-printed using 2 siRNAs per target in the Druggable Genome v2 Library (Qiagen) such that each well contains 13 nM of an individual siRNA duplex. High throughput reverse transfections are performed by adding transfection agent Lipofectamine 2000 (Invitrogen) and 1500 cells diluted in McCoy's 5A medium supplemented with 2 mM L-glutamine and 2% FBS into each well following a standard reverse transfection protocol. Twenty-four hours post transfection, each assay plate is treated with or without 5 concentrations (0-10 μM) of Enzastaurin in 1% DMSO. Seventy-two hours later, cell viability is measured using chemiluminescence based CellTiter Glo (Promega) assay readout, according to manufacturer's recommendations. UBB siRNA (Qiagen) is the positive cell killing control and All Star Non-silencing (NS-AS) or green fluorescent protein (GFP) is the negative control. Raw signal values are normalized to untreated control wells to compare across plates. These are fit to a 4-parameter logistical model to determine IC50 values. A ‘shift’ in IC50 with respect to the negative control (described above) is calculated as: (IC50 target−IC50 control) divided by IC50 control.

RKO (HDAC 2+/−) = experiment: Enzastaurin drug dose response, CellTiter Glo cell viability; conditions: RKO cells
Procedure: (§1) The human colon cancer cell line, HCT116 (HDAC 2 w.t), and RKO (HDAC 2+/−), a cell line containing a nonsense mutation resulting in null protein expression of HDAC2 relative to HCT116, are obtained from American Tissue Culture Collection, ATCC (Rockville, Md., USA) and cultured in the ATCC recommended growth medium supplemented with 2 mM L-glutamine and 10% FBS, in a humidified 37° C. incubator with 5% CO2. Drug dose response experiments are performed by seeding 1000-2000 cells diluted in McCoy's 5A medium containing 25 mM N-2-hydroxyethylpiperazine-N′-2-ethanesulfonic acid (HEPES), 2 mM L-glutamine and 2% fetal bovine serum (FBS) followed by treatment with or without serial dilutions of Enzastaurin (0-100 μM) in 1% DMSO. Seventy-two or ninety-six hours later, cell viability is measured using chemiluminescence based CellTiter Glo (Promega) assay readout, according to manufacturer's recommendations. Raw signal values are normalized to untreated control and analyzed by non-linear curve fitting in GraphPad Prism (La Jolla, Calif., USA).

HCT116 (HDAC 2 w.t) = experiment: as above; conditions: HCT116 cells
Procedure: as §1

**Q.** How did the “shift in IC50 values relative to negative control” value (HCT116 cells; HCT116, three siRNAs that target HDAC2) turn out when `Cn1cc(C2=C(c3cn(C4CCN(Cc5ccccn5)CC4)c4ccccc34)C(=O)NC2=O)c2ccccc21` [Enzastaurin, 3-(1-methyl-1H-indol-3-yl)-4-[1-[1-(pyridin-2-ylmethyl)piperidin-4-yl]-1H-indol-3-yl]-1H-pyrrole-2,5-dione] was run?
**A.** The value was over 2 fold.

**Q.** And the “cell killing in high content images” value (HCT116 cells; HCT116 treated with Enzastaurin and HDAC2 siRNA relative to negative controls and either condition alone, data not shown)?
**A.** Its value is “higher degree of cell killing”.

**Q.** What about the IC50 (HCT116 cells; HCT116, HDAC2 siRNA: None (negative control)) of the same molecule?
**A.** Its IC50 is 3690 nM.

**Q.** And the IC50 (HCT116 cells; HCT116 transfected with HDAC2 siRNA SEQ ID NO: 1)?
**A.** Its IC50 is 1360 nM.

**Q.** What about the IC50 (HCT116 cells; HCT116 transfected with HDAC2 siRNA SEQ ID NO: 2) of the same molecule?
**A.** The IC50 was 1680 nM.

**Q.** And the IC50 (HCT116 cells; HCT116 transfected with HDAC2 siRNA SEQ ID NO: 3)?
**A.** The IC50 was 2010 nM.

**Q.** And the IC50 (RKO (HDAC 2+/−); Homo sapiens, 72 or 96 h)?
**A.** Its IC50 is 3560 nM.

**Q.** And the maximum killing effect (RKO (HDAC 2+/−))?
**A.** Its maximum killing effect is 95-100%.

**Q.** What about the maximum killing effect (HCT116 (HDAC 2 w.t)) of the same molecule?
**A.** Its maximum killing effect is 50-60%.

**Q.** What about the IC50 (HCT116 (HDAC 2 w.t); Homo sapiens, HCT-116, 72 or 96 h) of the same molecule?
**A.** The IC50 was 8340 nM.
